Test results reported in ChEMBL document CHEMBL1134520, “Potent somatostatin undecapeptide agonists selective for somatostatin receptor 1 (sst1)” (J Med Chem, 2001).
pIC50: −log10 of the molar value. Bridge positions count the residues as written; N and C are the ends. Square brackets hold non-standard residues; d marks the D form. Peptide text beside a SMILES is read from it. Phe(4-CH2NHiPr) = CC(C)NCc1ccc(C[C@H](N)C(=O)O)cc1

Columns and labels:
[1] = molecular target: Somatostatin receptor type 3 (Homo sapiens, UniProt P32745); experiment: Tested for ability to bind to 20 uM thick cryostat sections of a membrane pellet of cells transfected with human cloned somatostatin (sst) receptor subtype 3.
[2] = molecular target: Somatostatin receptor type 2 (Homo sapiens, UniProt P30874); experiment: Tested for ability to bind to 20 uM thick cryostat sections of a membrane pellet of cells transfected with human cloned somatostatin (sst) receptor subtype 2.
[3] = molecular target: Somatostatin receptor type 4 (Homo sapiens, UniProt P31391); experiment: Tested for ability to bind to 20 uM thick cryostat sections of a membrane pellet of cells transfected with human cloned somatostatin (sst) receptor subtype 4.
[4] = molecular target: Somatostatin receptor type 5 (Homo sapiens, UniProt P35346); experiment: Tested for ability to bind to 20 uM thick cryostat sections of a membrane pellet of cells transfected with human cloned somatostatin (sst) receptor subtype 5.
[5] = molecular target: Somatostatin receptor type 1 (Homo sapiens, UniProt P30872); experiment: Tested for ability to bind to 20 uM thick cryostat sections of a membrane pellet of cells transfected with human cloned somatostatin (sst) receptor subtype 1.
Sequence of Somatostatin receptor type 1 (P30872 whole entry): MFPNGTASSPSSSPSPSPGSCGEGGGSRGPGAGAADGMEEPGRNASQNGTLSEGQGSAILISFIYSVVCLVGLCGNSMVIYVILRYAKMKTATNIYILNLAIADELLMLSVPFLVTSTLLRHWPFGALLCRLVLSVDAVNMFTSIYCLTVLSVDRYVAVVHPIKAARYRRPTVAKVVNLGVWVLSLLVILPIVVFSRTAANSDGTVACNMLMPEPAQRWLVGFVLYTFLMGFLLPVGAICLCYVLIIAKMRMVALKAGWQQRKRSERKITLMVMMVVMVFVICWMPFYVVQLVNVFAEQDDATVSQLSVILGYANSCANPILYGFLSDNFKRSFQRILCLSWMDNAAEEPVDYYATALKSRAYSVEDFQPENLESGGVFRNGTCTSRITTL

Sequence of Somatostatin receptor type 5 (P35346 whole entry): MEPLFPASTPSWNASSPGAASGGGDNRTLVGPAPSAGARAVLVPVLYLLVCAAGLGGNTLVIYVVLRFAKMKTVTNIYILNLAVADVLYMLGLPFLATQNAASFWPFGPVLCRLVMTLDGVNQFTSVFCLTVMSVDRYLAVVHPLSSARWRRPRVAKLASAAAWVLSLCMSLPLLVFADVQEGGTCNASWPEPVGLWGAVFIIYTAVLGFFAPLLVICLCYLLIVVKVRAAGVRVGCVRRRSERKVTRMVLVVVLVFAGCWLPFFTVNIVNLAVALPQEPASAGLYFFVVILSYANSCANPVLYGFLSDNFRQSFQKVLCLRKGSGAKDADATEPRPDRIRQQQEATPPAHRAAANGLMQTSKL
Sequence of Somatostatin receptor type 2 (P30874 whole entry): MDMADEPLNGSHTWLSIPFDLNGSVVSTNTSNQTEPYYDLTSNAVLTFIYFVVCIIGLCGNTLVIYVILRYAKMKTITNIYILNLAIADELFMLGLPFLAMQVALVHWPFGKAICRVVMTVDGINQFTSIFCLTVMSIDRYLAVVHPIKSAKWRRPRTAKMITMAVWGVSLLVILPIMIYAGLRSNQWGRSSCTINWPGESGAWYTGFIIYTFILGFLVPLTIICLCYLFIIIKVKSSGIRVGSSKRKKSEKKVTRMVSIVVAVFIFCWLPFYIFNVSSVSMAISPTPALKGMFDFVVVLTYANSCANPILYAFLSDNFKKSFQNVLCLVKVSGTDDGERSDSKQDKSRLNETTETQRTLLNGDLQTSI
Sequence of Somatostatin receptor type 4 (P31391 whole entry): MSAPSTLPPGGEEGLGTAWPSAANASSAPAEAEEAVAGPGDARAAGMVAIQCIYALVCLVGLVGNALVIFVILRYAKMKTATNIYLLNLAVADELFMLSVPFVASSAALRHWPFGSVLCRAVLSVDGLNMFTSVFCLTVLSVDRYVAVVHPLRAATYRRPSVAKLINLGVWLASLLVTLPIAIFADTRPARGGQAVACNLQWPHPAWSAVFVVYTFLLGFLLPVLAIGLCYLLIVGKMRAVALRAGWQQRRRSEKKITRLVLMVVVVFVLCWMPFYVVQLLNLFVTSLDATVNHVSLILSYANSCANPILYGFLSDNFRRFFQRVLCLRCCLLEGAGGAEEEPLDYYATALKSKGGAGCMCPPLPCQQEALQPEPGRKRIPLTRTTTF
Sequence of Somatostatin receptor type 3 (P32745 whole entry): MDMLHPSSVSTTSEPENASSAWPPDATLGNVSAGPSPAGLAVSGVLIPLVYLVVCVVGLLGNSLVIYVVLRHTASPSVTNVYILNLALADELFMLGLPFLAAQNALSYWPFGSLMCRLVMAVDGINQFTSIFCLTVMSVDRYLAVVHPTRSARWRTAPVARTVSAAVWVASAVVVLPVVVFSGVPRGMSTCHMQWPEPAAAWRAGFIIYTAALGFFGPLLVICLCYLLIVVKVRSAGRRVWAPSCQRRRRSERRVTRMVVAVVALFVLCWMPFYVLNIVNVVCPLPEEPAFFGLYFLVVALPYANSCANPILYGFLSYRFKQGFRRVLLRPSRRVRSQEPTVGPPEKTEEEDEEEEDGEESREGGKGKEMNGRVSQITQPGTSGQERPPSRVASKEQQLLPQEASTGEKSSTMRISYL

pIC50 [1] | pIC50 [2] | pIC50 [3] | pIC50 [4] | pIC50 [5] | SMILES
< 6.00 | < 5.00 | < 6.00 |  |  | CC(C)NCc1ccc(C[C@@H]2NC(=O)[C@@H](Cc3c[nH]c4ccccc34)NC(=O)[C@H](Cc3ccccc3)NC(=O)[C@H](Cc3ccccc3)NC(=O)[C@H](CCCCN)NC(=O)[C@H](NC(=O)[C@@H](N)Cc3ccc(O)cc3)CSSC[C@@H](C(=O)O)NC(=O)[C@H](CO)NC(=O)[C@H]([C@@H](C)O)NC(=O)[C@H](Cc3ccccc3)NC(=O)[C@H]([C@@H](C)O)NC2=O)cc1
< 5.00 | < 5.00 | < 5.00 | < 5.00 | < 6.00 | C[C@@H](O)[C@@H]1NC(=O)[C@H](Cc2ccccc2)NC(=O)[C@H]([C@@H](C)O)NC(=O)[C@H](Cc2ccc(Nc3nnc(N)[nH]3)cc2)NC(=O)[C@@H](Cc2c[nH]c3ccccc23)NC(=O)[C@H](Cc2ccccc2)NC(=O)[C@H](Cc2ccccc2)NC(=O)[C@H](CCCCN)NC(=O)[C@@H](N)CSSC[C@@H](C(=O)O)NC(=O)[C@H](CO)NC1=O
6.35 | < 5.00 | < 6.00 |  | 6.14 | CC(C)NCc1ccc(C[C@@H]2NC(=O)[C@@H](Cc3c[nH]c4ccccc34)NC(=O)[C@H](Cc3ccccc3)NC(=O)[C@H](Cc3ccccc3)NC(=O)[C@@H](NC(=O)[C@@H](N)Cc3ccc(O)cc3)CSSC[C@@H](C(=O)O)NC(=O)[C@H]([C@@H](C)O)NC(=O)[C@H](Cc3ccccc3)NC(=O)[C@H]([C@@H](C)O)NC2=O)cc1
6.15 |  | < 5.00 |  |  | CC(C)NCc1ccc(C[C@@H]2NC(=O)[C@@H](Cc3c[nH]c4ccccc34)NC(=O)[C@H](Cc3ccccc3)NC(=O)[C@H](Cc3ccccc3)NC(=O)[C@H](CCCCN)NC(=O)[C@@H](NC(=O)[C@@H](N)Cc3ccc(O)cc3)CSSC[C@@H](C(=O)O)NC(=O)[C@H](CO)NC(=O)[C@H]([C@@H](C)O)NC(=O)[C@H](Cc3ccccc3)NC(=O)[C@H]([C@@H](C)O)NC2=O)cc1
 | < 5.00 |  | < 5.00 |  | CC(C)NCc1ccc(C[C@@H]2NC(=O)[C@@H](Cc3c[nH]c4ccccc34)NC(=O)[C@H](Cc3ccccc3)NC(=O)[C@H](Cc3ccccc3)NC(=O)[C@@H](N)CSSC[C@@H](C(=O)O)NC(=O)[C@H](Cc3ccccc3)NC(=O)[C@H]([C@@H](C)O)NC2=O)cc1 (H-CFF[dW][Phe(4-CH2NHiPr)]TFC-OH; disulfide 1-8)
6.46 | < 5.00 |  | < 5.00 |  | CC(C)NCc1ccc(C[C@@H]2NC(=O)[C@@H](Cc3c[nH]c4ccccc34)NC(=O)[C@H](Cc3ccccc3)NC(=O)[C@H](Cc3ccccc3)NC(=O)[C@H](CCCCN)NC(=O)[C@@H](N)CSSC[C@@H](C(=O)O)NC(=O)[C@H](CO)NC(=O)[C@H]([C@@H](C)O)NC(=O)[C@H](Cc3ccccc3)NC(=O)[C@H]([C@@H](C)O)NC2=O)cc1 (H-CKFF[dW][Phe(4-CH2NHiPr)]TFTSC-OH; disulfide 1-11)
< 6.00 | < 6.00 | < 6.00 |  | < 6.00 | CC(C)NCc1ccc(C[C@@H]2NC(=O)[C@@H](Cc3c[nH]c4ccccc34)NC(=O)[C@H](Cc3ccccc3)NC(=O)[C@@H](NC(=O)[C@@H](N)Cc3ccc(O)cc3)CSSC[C@@H](C(=O)O)NC(=O)[C@H](Cc3ccccc3)NC(=O)[C@H]([C@@H](C)O)NC2=O)cc1 (H-YCF[dW][Phe(4-CH2NHiPr)]TFC-OH; disulfide 2-8)
6.12 |  |  | < 6.00 | 6.07 | CC(C)NCc1ccc(C[C@@H]2NC(=O)[C@@H](Cc3ccc4ccccc4c3)NC(=O)[C@H](Cc3ccccc3)NC(=O)[C@H](Cc3ccccc3)NC(=O)[C@H](CCCCN)NC(=O)[C@H](NC(=O)CCc3ccc(O)cc3)CSSC[C@@H](C(=O)O)NC(=O)[C@H](CO)NC(=O)[C@H]([C@@H](C)O)NC(=O)[C@H](Cc3ccccc3)NC(=O)[C@@H]([C@@H](C)O)NC2=O)cc1 (stereo in doubt; 30)

SMILES | pIC50 [1] | pIC50 [2] | pIC50 [3] | pIC50 [4] | pIC50 [5]
C[C@@H](O)[C@@H]1NC(=O)[C@H](CCCCN)NC(=O)[C@@H](Cc2c[nH]c3ccccc23)NC(=O)[C@H](Cc2ccccc2)NC(=O)[C@H](Cc2ccccc2)NC(=O)[C@@H](N)CSSC[C@@H](C(=O)O)NC(=O)[C@H](Cc2ccccc2)NC1=O (H-CFF[dW]KTFC-OH; disulfide 1-8) |  | 7.36 | 8.89 |  | 
